Assay results as given in patent US20230276817A1, “PREPARATION AND METHOD FOR IMPROVING RiNG ROT RESISTANCE OF APPLE FRUITS” (Shandong Institute of Pomology, priority 2022, published 2023).

Columns and labels:
Type in all cases: in vivo
[1] = system: Botryosphaeria dothidea; assay: In-vitro inoculation of sorbitol-soaked mature "Red delicious" apple fruits with ring rot fungus
Experimental: (§1) A fungus block of Botrvosphaeria dothidea was inoculated in a potato dextrose agar (PDA) medium by a puncher having a diameter of 5 mm, and inverted and cultured in the dark at 28° C. for 10 days.
S21: An in-vitro inoculation method was adopted for identifying disease resistance of the “Red delicious” apple fruits; and 6 treatments were set as follows:
S22: Surfaces of mature “Red delicious” fruits (within 140 days after flowering) were disinfected with 0.1% of sodium hypochlorite; and the fruits were fully washed with sterilized deionized water, aired and stood at 25° C. for 12 h for later use.
S23: The “Red delicious” fruits of the same size were selected and respectively soaked in the sterilized deionized water, the sorbitol solution of 100 mM, the sorbitol solution of 150 mM, the sorbitol solution of 200 mM and the sorbitol solution of 300 mM; and 10 fruits were treated in each treatment. The apples were taken out within 3 h after treatment; surface liquid was wiped up; middle parts of the surfaces of the apple fruits were punctured by sterilized toothpicks at a depth of 5 mm: 0.02 g of Botryosphaeria. dothidea hyphae having vigorous and consistent growth within 10 days was added into the punctured parts; and the single pathogenic fungus inoculation treatment was taken as control. After inoculation, the “Red delicious” fruits were cultured in a thermostatic incubator at 28° C. in the dark. A disease spot diameter served as a measurement standard of the incidence degree of the apple fruits; diameters of 5 points of each disease spot were measured; and the mean value was taken as the result. Since 3 d after treatment, disease spot diameters of the apple fruits in different treatments were photographed and recorded every day; and the diameters were continuously recorded for 4 d. A significance level of disease spot size differences among the treatment groups was calculated according to analysis of variance.

[2] = system: Botryosphaeria dothidea; assay: In-vitro inoculation of sorbitol-soaked mature "Fuji" apple fruits with ring rot fungus
Experimental: as §1
S31: An in-vitro inoculation method was adopted for identifying disease resistance of the “Fuji” apple fruits; and 6 treatments were set as follows:
S32: Surfaces of mature “Fuji” fruits (within 180 days after flowering) were disinfected with 0.1% of sodium hypochlorite; and the fruits were fully washed with sterilized deionized water, aired and stood at 25° C. for 12 h for later use.
S33: The “Fuji” fruits of the same size were selected and respectively soaked in the sterilized deionized water, the sorbitol solution of 100 mM, the sorbitol solution of 150 mM, the sorbitol solution of 200 mM and the sorbitol solution of 300 mM; and 10 fruits were treated in each treatment. The apples were taken out within 3 h after treatment; surface liquid was wiped up; middle parts of the surfaces of the apple fruits were punctured by sterilized toothpicks at a depth of 5 mm; 0.02 g of Botryosphaeria dothidea hyphae having vigorous and consistent growth within 10 days was added into the punctured parts; and the single pathogenic fungus inoculation treatment was taken as control. After inoculation, the “Fuji” fruits were cultured in a thermostatic incubator at 28° C. in the dark. A disease spot diameter served as a measurement standard of the incidence degree of the apple fruits; diameters of 5 points of each disease spot were measured; and the mean value was taken as the result. Since 3 d after treatment, disease spot diameters of the apple fruits in different treatments were photographed and recorded every day; and the diameters were continuously recorded for 4 d. A significance level of disease spot size differences among the treatment groups was calculated according to analysis of variance.

[3] = system: Botryosphaeria dothidea; assay: In-vitro inoculation of sorbitol-soaked mature "Gala" apple fruits with ring rot fungus
Experimental: as §1
S41: An in-vitro inoculation method was adopted for identifying disease resistance of the “Gala” apple fruits, and 6 treatments were set as follows:
S42: Surfaces of mature “Gala” fruits (within 120 days after flowering) were disinfected with 0.1% of sodium hypochlorite; and the fruits were fully washed with sterilized deionized water, aired and stood at 25° C. for 12 h for later use.
S43: The “Gala” fruits of the same size were selected and respectively soaked in the sterilized deionized water, the sorbitol solution of 100 mM, the sorbitol solution of 150 mM, the sorbitol solution of 200 mM and the sorbitol solution of 300 mM; and 10 fruits were treated in each treatment. The apples were taken out within 3 h after treatment; surface liquid was wiped up; middle parts of the surfaces of the apple fruits were punctured by sterilized toothpicks at a depth of 5 mm; 0.02 g of Botryosphaeria dothidea hyphae having vigorous and consistent growth within 10 days was added into the punctured parts; and the single pathogenic fungus inoculation treatment was taken as control. After inoculation, the “Gala” fruits were cultured in a thermostatic incubator at 28° C. in the dark. A disease spot diameter served as a measurement standard of the incidence degree of the apple fruits; diameters of 5 points of each disease spot were measured; and the mean value was taken as the result. Since 3 d after treatment, disease spot diameters of the apple fruits in different treatments were photographed and recorded every day; and the diameters were continuously recorded for 4 d. A significance level of disease spot size differences among the treatment groups was calculated according to analysis of variance.

[4] = system: Botryosphaeria dothidea; assay: In-vitro inoculation of sorbitol-soaked mature "Golden delicious" apple fruits with ring rot fungus
Experimental: as §1
S51: An in-vitro inoculation method was adopted for identifying disease resistance of the “Golden delicious” apple fruits; and 6 treatments were set as follows:
S52: Surfaces of mature “Golden delicious” fruits (within 135 days after flowering) were disinfected with 0.1% of sodium hypochlorite; and the fruits were fully washed with sterilized deionized water, aired and stood at 25° C. for 12 h for later use.
S53: The “Golden delicious” fruits of the same size were selected and respectively soaked in the sterilized deionized water, the sorbitol solution of 100 mM, the sorbitol solution of 150 mM, the sorbitol solution of 200 mM and the sorbitol solution of 300 mM; and 10 fruits were treated in each treatment. The apples were taken out within 3 h after treatment; surface liquid was wiped up; middle parts of the surfaces of the apple fruits were punctured by sterilized toothpicks at a depth of 5 mm; 0.02 g of Botryosphaeria dothidea hyphae having vigorous and consistent growth within 10 days was added into the punctured parts; and the single pathogenic fungus inoculation treatment was taken as control. After inoculation, the “Golden delicious” fruits were cultured in a thermostatic incubator at 28° C. in the dark. A disease spot diameter served as a measurement standard of the incidence degree of the apple fruits; diameters of 5 points of each disease spot were measured; and the mean value was taken as the result. Since 3 d after treatment, disease spot diameters of the apple fruits in different treatments were photographed and recorded every day; and the diameters were continuously recorded for 4 d. A significance level of disease spot size differences among the treatment groups was calculated according to analysis of variance.

[5] = sorbitol solution of 200 mM, soak 3 h, 6 d after inoculation
[6] = sorbitol solution of 300 mM, 6 d after inoculation
[7] = sorbitol solution soak 3 h, 3-6 d after inoculation

Structure (SMILES): OC[C@@H](O)[C@@H](O)[C@H](O)[C@@H](O)CO [sorbitol, D-Sorbitol]
- optimum treatment concentration [1]: 200 mM
- disease spot diameter [1, 5]: 0.76 cm
- disease spot diameter versus 200 mM treatment [1, 6]: no significant difference
- increase rate of the disease spot diameters compared with the control [1, 7]: significantly decreased
- optimum treatment concentration [2]: 150 mM
- disease spot diameter ([2]; sorbitol solution of 150 mM, soak 3 h, 6 d after inoculation): 1.86 cm
- disease spot diameter versus 150 mM treatment ([2]; sorbitol solution of 200 mM, 6 d after inoculation): no significant difference
- disease spot diameter versus 150 mM treatment [2, 6]: no significant difference
- increase rate of the disease spot diameters compared with the control [2, 7]: significantly decreased
- optimum treatment concentration [3]: 200 mM
- average disease spot diameter [3, 5]: 1.89 cm
- disease spot diameter versus 200 mM treatment [3, 6]: no significant difference
- increase rate of the disease spot diameters compared with the control [3, 7]: significantly decreased
- optimum treatment concentration [4]: 200 mM
- average disease spot diameter [4, 5]: 1.70 cm
- disease spot diameter versus 200 mM treatment [4, 6]: no significant difference
- increase rate of the disease spot diameters compared with the control [4, 7]: significantly decreased
